The numbers were not newly measured in patent US20080241076A1, “Method and composition for increasing Erythropoietin” (priority 2007, published 2008), which cites them from elsewhere.

One series has as its system responsiveness to EPO. As to conditions: in vivo.
The next series has as its system hemoglobin levels. The note with it: hemodialysis patients.
The conditions of series [1]: human, in vivo.
Another series concerns erythrocyte. The note with it: Carnitine supplementation.
For series [2], the system named is erythrocyte 2,3-bisphosphoglycerate (2,3-BPG). As to conditions: following phosphate loading.
The test system of another series is kidney production of EPO. As to conditions: dog kidneys; substances given separately.
The test system of another series is renal EPO production. The note with it: animal studies.
For series [3] the following is noted: in-vitro, 14C-labeled.
The next series concerns blood flow. The note with it: animal study.
A further series relates to induced clots. As to conditions: dogs with induced clots.
The test system of another series is blood clots. As to conditions: human trials, feeding.

As for Vitamin E, in the series with endogenous glutathione, the endogenous glutathione result is “stabilize”. `O=C1O[C@H]([C@@H](O)CO)C(O)=C1O` [Vitamin C]: the “responsiveness to EPO” value with responsiveness to EPO was “improve”. In addition, in the series with hemoglobin levels, the hemoglobin levels entry was “significant increases”. Take `[Se]` [selenium]: in series [1], the “elemental concentration in whole blood and plasma” value is listed as “significant increase”. Consider `C[N+](C)(C)CC(O)CC(=O)[O-]` (stereo not drawn) [Carnitine], for which, in the series with erythrocyte, the erythrocyte survival time result is “increase”. Turning to phosphate, in [2], the “erythrocyte 2,3-BPG” value is “significant increase”. As for `CCCCC[C@H](O)/C=C/[C@H]1[C@H](O)CC(=O)[C@@H]1C/C=C\CCCC(=O)O` [PGE2, reference compound], the “kidney production of EPO” value in the series with kidney production of EPO is on record as “increased”. Further, the “iron incorporation in RBC” value in the series on RBC was “significant increase”. On to Vitamin A, for which, in the series on renal EPO production, the “renal EPO production” value was “increase”. Turning to `CCCCC/C=C\C/C=C\C/C=C\C/C=C\CCCC(=O)O` [Arachidonic Acid, all-cis-5,8,11,14-eicossatetraenoic acid], the “prostaglandins produced from Arachidonic acid” value in series [3] is “PGD2, PGE2, PGF2 alpha and 6-keto-PGF1 alpha”. In addition, the “kidney production of EPO” value in the series with kidney production of EPO was “increased”.

B1: plasmin: the body's natural fibrinolytic enzyme (protein, UniProt P00747 20-580; P00747 581-810, looked up)
Plasmin heavy chain A: EPLDDYVNTQGASLFSVTKKQLGAGSIEECAAKCEEDEEFTCRAFQYHSKEQQCVIMAENRKSSIIIRMRDVVLFEKKVYLSECKTGNGKNYRGTMSKTKNGITCQKWSSTSPHRPRFSPATHPSEGLEENYCRNPDNDPQGPWCYTTDPEKRYDYCDILECEEECMHCSGENYDGKISKTMSGLECQAWDSQSPHAHGYIPSKFPNKNLKKNYCRNPDRELRPWCFTTDPNKRWELCDIPRCTTPPPSSGPTYQCLKGTGENYRGNVAVTVSGHTCQHWSAQTPHTHNRTPENFPCKNLDENYCRNPDGKRAPWCHTTNSQVRWEYCKIPSCDSSPVSTEQLAPTAPPELTPVVQDCYHGDGQSYRGTSSTTTTGKKCQSWSSMTPHRHQKTPENYPNAGLTMNYCRNPDADKGPWCFTTDPSVRWEYCNLKKCSGTEASVVAPPPVVLLPDVETPSEEDCMFGNGKGYRGKRATTVTGTPCQDWAAQEPHRHSIFTPETNPRAGLEKNYCRNPDGDVGGPWCYTTNPRKLYDYCDVPQCAAPSFDCGKPQVEPKKCPGR
Plasmin light chain B: VVGGCVAHPHSWPWQVSLRTRFGMHFCGGTLISPEWVLTAAHCLEKSPRPSSYKVILGAHQEVNLEPHVQEIEVSRLFLEPTRKDIALLKLSSPAVITDKVIPACLPSPNYVVADRTECFITGWGETQGTFGAGLLKEAQLPVIENKVCNRYEFLNGRVQSTELCAGHLAGGTDSCQGDSGGPLVCFEKDKYILQGVTSWGLGCARPNKPGVYVRVSRFVTWIEGVMRNN
modifications: plasmin
notes: the body's natural fibrinolytic enzyme
On to B1, for which the “regain in blood flow” value in the series with blood flow was 15.8%.

B2: Nattokinase: potent fibrinolytic enzyme extracted from a Japanese food called Natto (protein, UniProt P35835 107-381, looked up)
Subtilisin NAT: AQSVPYGISQIKAPALHSQGYTGSNVKVAVIDSGIDSSHPDLNVRGGASFVPSETNPYQDGSSHGTHVAGTIAALNNSIGVLGVAPSASLYAVKVLDSTGSGQYSWIINGIEWAISNNMDVINMSLGGPTGSTALKTVVDKAVSSGIVVAAAAGNEGSSGSTSTVGYPAKYPSTIAVGAVNSSNQRASFSSVGSELDVMAPGVSIQSTLPGGTYGAYNGTSMATPHVAGAAALILSKHPTWTNAQVRDRLESTATYLGNSFYYGKGLINVQAAAQ
Consider B2, for which the “time to regain normal blood circulation” value with induced clots is reported as “within five hours”. In addition, the “regain in blood flow” value in the series with blood flow is on record as 62%. Also, the “ability to dissolve blood clots” value in the series with blood clots is “heightened ability to dissolve blood clots”.
